Test results from patent publication US6989377B2, “Treating vitamin D responsive diseases” (priority 1999, dated 2006).
Read-outs that look alike come from different tables or passages of the source.

How the values were obtained:
[1] = tested on: DS-induced colitis in C3H/HeJ male mice; test: Calcitriol prevention of DS-induced colitis; type: in vivo, mouse
Protocol: Fecal hemoglobin was analyzed in the mice to determine bleeding from a breached intestinal barrier. […] Co., Needham Heights, Mass.), the supernatants were decanted into fresh tubes and stored frozen at -20° C. Hemoglobin in the supernatants was analyzed by a method adapted from Saitoh et al., Digestion, 56:67-75, 1995, and Liem et al., Anal. Biochem., 98:388-393, 1979, with rat hemoglobin as standard (Sigma-Aldrich). The supernatants were diluted 1:25 in TBS. […] The reaction was stopped with 100 μL of 2 M phosphoric acid, and the absorbance at 450 nm was measured with an MRX Revelation Microplate Reader (DYNEX Technologies). […] The mice were euthanized with an i.p. injection of pentobarbital. […] The fixed tissue was embedded in paraffin, sectioned at 6 μm, stained with hematoxylin and eosin, and examined by light microscopy. Scoring was conducted by a veterinary pathologist in blinded fashion. […] Clin. Invest., 98:1010-1020, 1996. The scores were summed to provide a total colitis score for each mouse. […] In particular, age-matched C3H/HeJ male mice were fed a synthetic diet (see Example 6) with or without calcitriol or prednisolone for one week. […] The mice were weighed every 3-4 days thereafter. […] Serum and colon tissue were collected on day 28. Most assays were performed as described in Example 6, and the terminal serum calcium assay was performed as described below. […] The serum was decanted and stored frozen at -20° C. The samples, standards, and buffer blanks (2 μL each) were aliquoted into duplicate wells of a 96-well plate. Calcium reagent working solution (0.25 mL), prepared according to the manufacturer's directions (Sigma Diagnostics, St. Louis, Mo.), was added to each well, and the absorbance at 570 nm was measured.

[2] = tested on: EAE in mice; conditions: cited from earlier work
[3] = tested on: collagen induced arthritis in mice; conditions: calcitriol administered to mice; cited from earlier work
[4] = tested on: DSS-induced colitis in 129X1/SvJ male mice; test: Treatment at the first signs of DSS-induced colitis in 129X1/SvJ mice; type: in vivo, mouse
Text: The 129×1/SvJ strain is genetically similar to the 129/Ola strain and to the 129/SvPas strain, which is less susceptible to DSS-induced colitis than C3H/HeJ.

[5] = tested on: 129-IL-10−/− mice; test: Spontaneous colitis in strain 129-IL-10-deficient mice; type: in vivo, mouse
Text: This example describes the spontaneous colitis that develops spontaneously in strain 129-IL-10^−/− mice with and without administration of calcitriol. It has been reported that mice made genetically deficient in IL-10 spontaneously develop chronic enterocolitis (Kuhn et al., Cell, 75:263-274, 1993) if resident enteric bacteria is present (Sellon et al., Infect. Immunity, 66:5224-5231, 1998). The effect of calcitriol on spontaneous colitis in 129-IL-10^−/− mice is examined. […] The mice were age 7 weeks when they were exposed to soiled bedding from mice housed under conventional conditions. This was done to provide the enteric bacteria for development of colitis.

[6] = tested on: B6×129-IL-10−/− mice; conditions: for Serum Calcium B6x129-IL-10−/− female (mg/dL): analyzed when mice lost 15% of body weight; for Serum Calcium B6x129-IL-10−/− male (mg/dL): analyzed four weeks later
Protocol: The calcitriol feeding was resumed at a lower dose (20 ng/d) at age 16 weeks. […] The calcitriol feeding was resumed at a lower dose (10 ng/d) at age 18 weeks.
Four weeks later, the serum calcium levels were measured (Table 10).

[7] = tested on: C3H/HeJ male mice; test: Serum calcium after calcitriol feeding, C3H/HeJ male mice; type: in vivo, mouse
Protocol: In order to determine serum calcium, blood was collected, allowed to clot, and centrifuged (5,000×g for 10 minutes) at 6° C. The serum was decanted and stored frozen at −20° C. The samples, standards, and buffer blanks (2 μL each) were aliquoted into duplicate wells of a 96-well plate. Calcium reagent working solution (0.25 mL), prepared according to the manufacturer's directions (Sigma Diagnostics, St. Louis, Mo.), was added to each well, and the absorbance at 570 nm was measured.

[8] = tested on: Lyme arthritis in mice; conditions: calcitriol administered to mice; cited from earlier work
[9] = given before EAE induction or at stage 1 EAE
[10] = 50 ng/d from day 4 of 1% DSS, terminated 21 days later
[11] = female, dose gradually reduced, age 24 weeks
[12] = female, dose gradually reduced, terminated at age 24 weeks
[13] = male, 50 ng/d, terminated at age 19 weeks

For `C=C1/C(=C\C=C2/CCC[C@]3(C)[C@@H]([C@H](C)CCCC(C)(C)O)CC[C@@H]23)C[C@@H](O)C[C@@H]1O` [Calcitriol, 1,25 dihydroxyvitamin D3], the “Peak Hg in Stool” value ([1]; 50 ng/day in diet from day −7, 1% DS days 0 to 5) was 4.3 ± 4.4 mg/g, the “Effect of pre-treatment on severity of DS-induced IBD” value ([1]; 50 ng/day pre-treatment) was “reduced the severity of DS-induced IBD” and the “Colon Histopathology, Distal colon” value ([1]; 50 ng/day, 1% DS, score 0 to 4) was 0.6 ± 0.9. For the same compound, the “Colon histopathology, Medial colon” value ([1]; 50 ng/day, 1% DS, score 0 to 4) was 0.4 ± 0.9, the “Colon histopathology, Proximal colon” value ([1]; 50 ng/day, 1% DS, score 0 to 4) was 0.4 ± 0.5 and the “Colon histopathology, Rectum” value ([1]; 50 ng/day, 1% DS, score 0 to 4) was 1.2 ± 1.1. The “Colon histopathology, Sum” value ([1]; 50 ng/day, 1% DS, total score 0 to 16) was 2.6 ± 1.9, the “Peak Hg in the stool, lower than that in the prednisolone-treated group” value ([1]; calcitriol 50 ng/day vs prednisolone 50 ng/day) was 65% and the “Peak Hg in the stool, lower than that in the untreated group” value ([1]; calcitriol 50 ng/day vs untreated DS group) was 37%. The “Total colon histopathology score, lower than the score of the untreated group B” value ([1]; calcitriol group C vs group B) was 61%, the “Total colon histopathology score, lower than the score of the prednisolone-treated group D” value ([1]; calcitriol group C vs group D) was 51% and the “Disease induction for EAE” value ([2]; calcitriol administered to mice) was “blocked disease induction”. For the same compound, the “Clonal expansion of Th1 cells producing IFN-γ and TNF-α” value [2, 9] was “arrested the clonal expansion of Th1 cells”, the “Transcript accumulation for TGF-β1 and IL-4 in central nervous system and lymph nodes” value [2, 9] was “stimulated an increase in transcript accumulation” and the “Disease induction for collagen induced arthritis” value [3] was “blocked disease induction”. The “Colon Histopathology, Distal colon” value ([4]; 50 ng/d from day 4 of 1% DSS) was 0.6 ± 0.9, the “Colon Histopathology, Middle colon” value ([4]; 50 ng/d from day 4 of 1% DSS) was 0 ± 0 and the “Colon Histopathology, Rectum + anus” value ([4]; 50 ng/d from day 4 of 1% DSS) was 0.2 ± 0.4. The “Colon histopathology, Proximal colon” value ([4]; 50 ng/d from day 4 of 1% DSS) was 0.4 ± 0.8, the “Colon histopathology, Sum” value ([4]; 50 ng/d from day 4 of 1% DSS) was 1.2 ± 1.8 and the “Peak fecal hemoglobin” value ([4]; 50 ng/d from day 4 of 1% DSS, 1 cycle, terminated 21 days later) was 1.3 ± 1.2 mg/g. The “Terminal Serum Ca” value [4, 10] was 9.7 ± 3.2 mg/dL, the “Terminal weight” value [4, 10] was 26.4 ± 3.3 g and the “Colon histopathology compared to the mock-treated and prednisolone-treated mice” value ([4]; three weeks later) was “significant reduction in colon histopathology”. For the same compound, the “Colon Histopathology, Distal colon” value ([5]; 10 ng/day) was 4 ± 0, the “Colon histopathology, Medial colon” value ([5]; 10 ng/day) was 4 ± 0 and the “Colon histopathology, Proximal colon” value ([5]; 10 ng/day) was 4 ± 0. The “Colon histopathology, Rectum” value ([5]; 10 ng/day) was 4 ± 0, the “Colon histopathology, Sum” value ([5]; 10 ng/day) was 16 ± 0 and the “Peak hemoglobin in stool” value ([5]; 10 ng/day in synthetic diet) was 0 ± 0. For the same compound, the “Terminal serum calcium” value ([5]; 10 ng/day in synthetic diet) was 12.5 ± 1.5 mg/dL, the “Terminal weight” value ([5]; 10 ng/day in synthetic diet) was 19.5 ± 1.5 g and the “Effect on spontaneous colitis” value ([5]; 129-IL-10−/− mice) was “did not prevent spontaneous colitis”. The Hypercalcemia ([5]; 129-IL-10−/− mice) was “developed hypercalcemia”, the “Effect on spontaneous colitis” value ([6]; 50 ng/d, colitis severity scores vs mock-treated not significantly different) was “did not inhibit spontaneous colitis” and the “Serum Calcium B6x129-IL-10−/− female (mg/dL)” value ([6]; female, 10 ng/d) was 12.5 ± 1.5 mg/dL. For the same compound, the “Serum Calcium B6x129-IL-10−/− female (mg/dL)” value ([6]; female, 20 ng/d) was 13.0 ± 3.0 mg/dL, the “Serum Calcium B6x129-IL-10−/− female (mg/dL)” value ([6]; female, 50 ng/d) was 12.9 ± 2.4 mg/dL and the “Peak fecal hemoglobin” value ([6]; female, calcitriol from age 7 weeks, dose gradually reduced, terminated at age 24 weeks) was 0 ± 0 mg/g. The “Colon Histopathology, Distal colon” value [6, 11] was 3.3 ± 0.5, the “Colon Histopathology, Middle colon” value [6, 11] was 3.3 ± 0.5 and the “Colon Histopathology, Rectum + anus” value [6, 11] was 2.8 ± 1.9. For the same compound, the “Colon histopathology, Proximal colon” value [6, 11] was 3.9 ± 0.3, the “Colon histopathology, Sum” value [6, 11] was 13.1 ± 2.7 and the “Terminal Serum Ca” value [6, 12] was 12.5 ± 1.5 mg/dL. For the same compound, the “Terminal weight” value [6, 12] was 19.5 ± 1.5 g, the Weight lost ([6]; female, feeding resumed at 20 ng/d at age 16 weeks) was 15% and the “Serum Calcium B6x129-IL-10−/− male (mg/dL)” value ([6]; male, 10 ng/d) was 15.8 ± 2.1 mg/dL. For the same compound, the “Serum Calcium B6x129-IL-10−/− male (mg/dL)” value ([6]; male, 20 ng/d) was 14.4 ± 1.0 mg/dL, the “Peak fecal hemoglobin” value ([6]; male, 50 ng/d from age 7 weeks, terminated at age 19 weeks) was 0 ± 0 mg/g and the “Colon Histopathology, Distal colon” value ([6]; male, 50 ng/d, age 19 weeks) was 3.0 ± 0.0. For the same compound, the “Colon Histopathology, Middle colon” value ([6]; male, 50 ng/d, age 19 weeks) was 1.7 ± 1.2, the “Colon Histopathology, Rectum + anus” value ([6]; male, 50 ng/d, age 19 weeks) was 2.7 ± 0.6 and the “Colon histopathology, Proximal colon” value ([6]; male, 50 ng/d, age 19 weeks) was 3.7 ± 0.6. The “Colon histopathology, Sum” value ([6]; male, 50 ng/d, age 19 weeks) was 11.1 ± 1.0, the “Serum Calcium B6x129-IL-10−/− male (mg/dL)” value ([6]; male, 50 ng/d) was 16.0 ± 3.5 mg/dL and the “Terminal Serum Ca” value [6, 13] was 15.6 ± 2.5 mg/dL. For the same compound, the “Terminal weight” value [6, 13] was 19.7 ± 0.9 g, the “Mortality of male mice” value ([6]; male, 100 ng/d from age 7 weeks) was “died abruptly at age 15 weeks” and the Hypercalcemia ([6]; male, graded (very low) doses from age 7 weeks, four weeks) was “severe hypercalcemia”. For the same compound, the “Serum Calcium C3H/HeJ male” value ([7]; 10 ng/d for two weeks) was 10.5 ± 2.1 mg/dL, the “Serum Calcium C3H/HeJ male” value ([7]; 20 ng/d for two weeks) was 10.1 ± 2.7 mg/dL and the “Serum Calcium C3H/HeJ male” value ([7]; 50 ng/d for two weeks) was 9.9 ± 0.6 mg/dL. For the same compound, the “Serum Calcium C3H/HeJ male” value ([7]; 100 ng/d for two weeks) was 10.1 ± 1.8 mg/dL, the “Tolerability of the calcitriol doses” value ([7]; mouse, in vivo) was “well tolerated” and the “Disease induction for Lyme arthritis” value [8] was “blocked disease induction”.
